25 molecules from patent US7250430B2, “Thiophene-and thiazolesulfonamides as antineoplastic agents” (Eli Lilly and Company, priority 2006, dated 2007) can be followed below.

One test has as its system Human Colon HCT116 tumor cells. In words: HCT116 Colon Carcinoma Cell Growth Inhibition (WST-1). The class given is cell-based. Conditions: HCT-116, 72 hr exposure. The procedure:
Human HCT 116 colon carcinoma cells were grown monolayer culture in RPMI 1640 medium supplemented with 10% fetal bovine serum and 1% penicillin-streptomycin (GibcoBRL, Grand Island, N.Y.). HCT116 cells in exponential growth phase were exposed to various concentrations of the test compounds at 37° C. for 72 hr in 5% carbon dioxide/air. After exposure to the agent, the cells were washed with 0.9% phosphate buffered saline. Growth inhibition was determined using WST-1 cell proliferation reagent as described above. The results are expressed as the growth fraction of treated cells compared with control cultures. Representative compounds of the present invention were tested for efficacy against the human colon HCT116 tumor cells.
With `O=C(NS(=O)(=O)c1ccc(Cl)s1)c1ccc(Br)cc1Cl` [Example 1, N-[4-bromo-2-chlorobenzoyl]-5-chlorothiophene-2-sulfonamide], the IC50 is 5.6 µM. As to `Cc1cc(Cl)ccc1C(=O)NS(=O)(=O)c1ccc(Br)s1` [Example 2, N-[4-chloro-2-methylbenzoyl]-5-bromothiophene-2-sulfonamide], half-maximal inhibition (IC50) was put at 6 µM. `O=C(NS(=O)(=O)c1cc(Br)c(Cl)s1)c1ccc(Br)cc1Cl` [Example 3, N-[4-bromo-2-chlorobenzoyl]-4-bromo-5-chlorothiophene-2-sulfonamide] yielded an IC50 of 14.7 µM. Still for that read-out and setting: next, `O=C(NS(=O)(=O)c1ccc(Cl)s1)c1ccc(C(F)(F)F)cc1C(F)(F)F` [Example 4, N-[2,4-bis(trifluoromethyl)-benzoyl]-5-chlorothiophene-2-sulfonamide]: 7.7 µM; `Cc1ccc(C(=O)NS(=O)(=O)c2ccc(Cl)s2)c(C)c1` [Example 6, N-[2,4-dimethylbenzoyl]-5-chlorothiophene-2-sulfonamide]: 20.6 µM; `Cc1ccc(C(=O)NS(=O)(=O)c2ccc(Br)s2)c(Cl)c1` [Example 7, N-[2-chloro-4-methylbenzoyl]-5-bromothiophene-2-sulfonamide]: 5.2 µM.

In the case of `O=C(NS(=O)(=O)c1ccc(Br)s1)c1ccc(Cl)cc1F` [Example 9, N-[4-chloro-2-fluorobenzoyl]-5-bromothiophene-2-sulfonamide], 21.7 µM corresponded to half-maximal inhibition (IC50).

Take `Cc1ccc(S(=O)(=O)NC(=O)c2ccc(Cl)cc2Cl)s1` [Example 16, N-[2,4-dichlorobenzoyl]-5-(methyl)thiophene-2-sulfonamide]: the IC50 turned out to be 3.7 µM. As to `CCc1ccc(S(=O)(=O)NC(=O)c2ccc(Cl)cc2Cl)s1` [Example 17, N-[2,4-dichlorobenzoyl]-5-(ethyl)thiophene-2-sulfonamide], the midpoint of inhibition, the IC50, lay at 5 µM.

`CCCc1ccc(S(=O)(=O)NC(=O)c2ccc(Cl)cc2Cl)s1` [Example 18, N-[2,4-dichlorobenzoyl]-5-(propyl)thiophene-2-sulfonamide] registered an IC50 of 13.2 µM. The molecule `COc1ccc(S(=O)(=O)NC(=O)c2ccc(Cl)cc2Cl)s1` [Example 19, N-[2,4-dichlorobenzoyl]-5-methoxythiophene-2-sulfonamide] yielded an IC50 of 5.8 µM. On the same count and under the same terms, as for `COCc1ccc(S(=O)(=O)NC(=O)c2ccc(Cl)cc2Cl)s1` [Example 20, N-[2,4-dichlorobenzoyl]-5-methoxymethyl-thiophene-2-sulfonamide], the figure is 5.7 µM; as for `Cc1cc(Cl)ccc1C(=O)NS(=O)(=O)c1ccc(C#N)s1` [Example 28, N-[4-chloro-2-methylbenzoyl]-5-cyanothiophene-2-sulfonamide], 8 µM; as for `Cc1cc(Br)ccc1C(=O)NS(=O)(=O)c1ccc(C#N)s1` [Example 29, N-[4-bromo-2-methylbenzoyl]-5-cyanothiophene-2-sulfonamide], 17.3 µM. `Cc1cc(Cl)ccc1C(=O)NS(=O)(=O)c1ccc(Cl)s1` [Example 30, N-[4-chloro-2-methylbenzoyl]-5-chlorothiophene-2-sulfonamide] returned an IC50 of 15.8 µM. On the same count and under the same terms, as for `Cc1ccc(C(=O)NS(=O)(=O)c2ccc(Cl)s2)c(Br)c1` [Example 31, N-[2-bromo-4-methylbenzoyl]-5-chlorothiophene-2-sulfonamide], the figure is 9.1 µM; as for `O=C(NS(=O)(=O)c1ccc(Br)s1)c1ccc(Br)cc1Br` [Example 32, N-[2,4-dibromobenzoyl]-5-bromothiophene-2-sulfonamide], 3.9 µM. Regarding `O=C(NS(=O)(=O)c1ccc(Br)s1)c1ccc(Br)cc1Cl` [Example 54, N-[4-bromo-2-chlorobenzoyl]-5-bromothiophene-2-sulfonamide], the IC50 was found to be 17 µM.

For the molecule `O=C(NS(=O)(=O)c1cccs1)c1ccc(Cl)cc1Cl` [Example 55, N-[2,4-dichlorobenzoyl]-thiophene-2-sulfonamide], the IC50 stood at 4.5 µM. Turning to `O=C(NS(=O)(=O)c1ccc(-c2ccccn2)s1)c1ccc(Cl)cc1Cl` [Example 56, N-[2,4-dichlorobenzoyl]-5-(2-pyridyl)-thiophene-2-sulfonamide], half-maximal inhibition (IC50) required 5.4 µM. As for `Cc1cc(Br)ccc1C(=O)NS(=O)(=O)c1ccc(Br)s1` [Example 57, N-[4-bromo-2-methylbenzoyl]-5-bromothiophene-2-sulfonamide], the IC50 was 3.4 µM. Molecule `O=C(NS(=O)(=O)c1ccc(Br)s1)c1ccc([N+](=O)[O-])cc1Cl` [Example 58, N-[2-chloro-4-nitrobenzoyl]-5-bromothiophene-2-sulfonamide] gave an IC50 of 5.2 µM. Same read-out and setting: as for `O=C(NS(=O)(=O)c1ccc(Cl)s1)c1ccc(Cl)cc1Cl` [Example 61, N-[2,4-dichlorobenzoyl]-5-chlorothiophene-2-sulfonamide], the figure is 1 µM. Turning to `O=C(NS(=O)(=O)c1ccc(Br)s1)c1ccc(Cl)cc1Cl` [Example 63, N-[2,4-dichlorobenzoyl]-5-bromothiophene-2-sulfonamide], half-maximal inhibition (IC50) was put at 1.3 µM.

The test system of another test is Human Colon Carcinoma HT-29. Briefly: Human Tumor Xenograft Assay, tumor growth delay. The class given is in vivo, mouse. As to conditions: Experiment A, 30 mg/kg IV, 5 consecutive days, 2 days rest. From the text: Inhibition of tumors transplanted into mice is an accepted procedure for studying the efficacy of antitumor agents (Corbett, et al., In vivo Methods for Screening and Preclinical Testing; Use of rodent solid tumors for drug discovery., In: Anticancer Drug Development Guide: Preclinical Screening, Clinical Trials, and Approval, B. Teicher (ed), Humana Press Inc., Totowa, N.J., Chapter 5, pages 75-99 (1997); (Corbett, et al., Int. J. Pharmacog., 33, Supplement, 102-122 (1995)). Murine tumors or human xenografts were implanted essentially as described by Corbett in In vivo Methods for Screening and Preclinical Testing; Use of rodent solid tumors for drug discovery. Briefly, the murine tumor or human xenograft was implanted subcutaneously using either 12-gauge trocar implants or counted number of cells. The location for the trocar insertion is midway between the axillary and inguinal region along the side of the mouse. The trocar is slipped approximately ¾ of an inch subcutaneously up toward the axilla before discharging the tumor fragment, and pinching the skin as the trocar is removed. Alternatively, human tumor cells prepared from cell culture (1×10^7 cells) mixed with an equal volume of Matrigel (Becton-Dickinson) were implanted subcutaneously in a hind-leg of a male or female nude mouse (Charles River). A test compound in vehicle or vehicle alone was administered by intravenous bolus injection (iv), intraperitoneal injection (ip), or oral gavage (po). Each treatment group, as well as a group of untreated control animals, consisted of eight to ten animals per group in each experiment. Subcutaneous tumor response was monitored by tumor volume measurement performed twice each week over the course of the experiment (60-120 days). Body weights were taken as a general measure of toxicity. The subcutaneous tumor data were analyzed by determining the median […] for each treatment group over the course of the experiment and calculating the tumor growth delay as the difference in days for the treatment versus the control tumors to reach a volume of either 500 or 1000 mm^3.
The compound of Example 64 was tested in two separate laboratories against a variety of murine and human tumors substantially as described supra. The parameters measured in each experiment are summarized in the following paragraphs. Tumor Weight(mg)=(a×b^2)/2 where a=tumor length (mm) and b=tumor width (mm).
Tumor Growth Delay=T−C where T is the median time (days) required for the treatment group tumors to reach a predetermined size, and C is the median time (days) for the control group tumors to reach the same size.
After palpable tumors were observed drug was administered IV for 5 consecutive days, animals rested for 2 days and compound dosed IV again for 5 consecutive days.
On to `O=C([N-]S(=O)(=O)c1ccc(Br)s1)c1ccc(Cl)cc1Cl.[Na+]` [Example 64, N-[2,4-dichlorobenzoyl]-5-bromothiophene-2-sulfonamide sodium salt], for which the “Tumor Growth Delay” value turned out to be 0 ± 2 days.

Still in this test, the particulars now being: Experiment A, 60 mg/kg IV, 5 consecutive days, 2 days rest.
With `O=C([N-]S(=O)(=O)c1ccc(Br)s1)c1ccc(Cl)cc1Cl.[Na+]` [Example 64, N-[2,4-dichlorobenzoyl]-5-bromothiophene-2-sulfonamide sodium salt], the “Tumor Growth Delay” value was 2 ± 2 days.

The test is the same for the next values; noted with them: Experiment A, 80 mg/kg IV, 5 consecutive days, 2 days rest.
Take `O=C([N-]S(=O)(=O)c1ccc(Br)s1)c1ccc(Cl)cc1Cl.[Na+]` [Example 64, N-[2,4-dichlorobenzoyl]-5-bromothiophene-2-sulfonamide sodium salt]: the “Tumor Growth Delay” value was determined as 2 ± 2 days.

Still in this test, the particulars now being: Experiment B, 30 mg/kg IV, 5 consecutive days, 2 days rest.
For `O=C([N-]S(=O)(=O)c1ccc(Br)s1)c1ccc(Cl)cc1Cl.[Na+]` [Example 64, N-[2,4-dichlorobenzoyl]-5-bromothiophene-2-sulfonamide sodium salt], the “Tumor Growth Delay” value stood at 9 ± 4 days.

The test is the same for the next values; noted with them: Experiment B, 60 mg/kg IV, 5 consecutive days, 2 days rest.
For the molecule `O=C([N-]S(=O)(=O)c1ccc(Br)s1)c1ccc(Cl)cc1Cl.[Na+]` [Example 64, N-[2,4-dichlorobenzoyl]-5-bromothiophene-2-sulfonamide sodium salt], the “Tumor Growth Delay” value was 3 ± 4 days.

The test is the same for the next values; noted with them: Experiment B, 80 mg/kg IV, 5 consecutive days, 2 days rest.
For the molecule `O=C([N-]S(=O)(=O)c1ccc(Br)s1)c1ccc(Cl)cc1Cl.[Na+]` [Example 64, N-[2,4-dichlorobenzoyl]-5-bromothiophene-2-sulfonamide sodium salt], the “Tumor Growth Delay” value was found to be 8 ± 3.6 days.
